US10155733B2, “N-aralkylcarbonyl-piperazine and -homopiperazine compounds and personal care compositions comprising the same” (Conopco, Inc., priority 2015, dated 2018)
Where two headings read alike, the source gives them in different places.

Tests used:
human M3 receptor = human M3 receptor (Homo sapiens (Human), UniProt P20309); assay: Muscarinic 3 receptor binding assay (3H-scopolamine displacement)
Experimental: The muscarinic 3 receptor binding assay was adapted from Perkin Elmer. […] Atropine (Sigma-Aldrich, St. Louis, Mo.) was used as a positive control. […] The reaction mixtures were then added to matrix 96-well GFC filtration microtiter plates that had been previously pretreated with 0.5% polyethylimine (100 μL) for 4 h and filtered. The binding reactions were terminated by filtering through the GFC plates and washing & filtering with ice-cold phosphate saline buffer (5×100 μL). Once the filters were dry, microscint scintillation cocktail (100 μL) was added to each well, allowed to sit for 20 min and the plates analyzed using a TopCount scintillation counter. […] Curve fitting of % inhibition versus concentration using Excell software allowed determination of IC50 values for test compounds.

[1] = pH measurements of test compound solutions; type: physicochemical
Experimental: Equimolar amounts of test compounds were used instead of weight % amounts to ensure a fair (molar-basis) comparison between test compounds. […] The pH of all test solutions was measured @ 22° C. using a Corning pH meter model 430 with a flat surface combo w/RJ electrode. The pH meter was calibrated using standard pH 7 & 12 buffers.

[2] = system: human living skin equivalents; type: cell-based
[3] = CHO cell membranes expressing human M3 receptor, 3H-scopolamine
[4] = 79 mM (equimolar) in isopropyl alcohol/water, 22° C.

Chain of human M3 receptor (P20309 whole entry): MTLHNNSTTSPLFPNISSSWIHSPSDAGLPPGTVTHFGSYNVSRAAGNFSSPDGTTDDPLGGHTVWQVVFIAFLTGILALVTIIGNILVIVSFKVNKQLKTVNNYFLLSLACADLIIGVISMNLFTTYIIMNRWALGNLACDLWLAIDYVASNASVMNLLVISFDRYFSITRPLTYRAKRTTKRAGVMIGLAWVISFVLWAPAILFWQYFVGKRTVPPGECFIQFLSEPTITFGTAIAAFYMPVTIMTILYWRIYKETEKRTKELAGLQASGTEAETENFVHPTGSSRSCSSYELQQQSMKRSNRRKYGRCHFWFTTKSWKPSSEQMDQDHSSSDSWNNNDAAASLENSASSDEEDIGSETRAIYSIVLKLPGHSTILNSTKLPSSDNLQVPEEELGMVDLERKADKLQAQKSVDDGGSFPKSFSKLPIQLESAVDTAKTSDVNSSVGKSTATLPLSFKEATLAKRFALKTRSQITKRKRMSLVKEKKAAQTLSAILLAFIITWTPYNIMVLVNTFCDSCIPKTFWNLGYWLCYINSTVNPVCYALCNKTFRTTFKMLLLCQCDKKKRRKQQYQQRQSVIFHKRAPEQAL

In the case of `O=C(N1CCN(C/C=C/c2ccccc2)CC1)C(O)(c1ccccc1)C1CCCC1` (stereo not drawn) [Compound 7e], the IC50 (human M3 receptor) is reported as 0.195 µM.

Work on `O=C(C(c1ccccc1)C1CCCC1)N1CCN(CCc2ccccc2)CC1` (stereo not drawn) [Compound 7a] yielded an IC50 (human M3 receptor) of 1.8 µM.

For `CN1CCN(C(=O)C(c2ccccc2)C2CCCC2)CC1` (stereo not drawn) [Compound 3b], the IC50 (human M3 receptor; [3]) was 2.1 µM.

For `O=C(C(c1ccccc1)C1CCCC1)N1CCN(CCCc2ccccc2)CC1` (stereo not drawn) [Compound 7b], the IC50 (human M3 receptor; [3]) was 2.1 µM.

With `O=C(N1CCCNCC1)C(O)(c1ccccc1)C1CCCC1` (stereo not drawn) [Compound 6j] the “Measured pH of solution” value [1] was 9.9.

With `CN1CCCNCC1` [Compound 15] the “Measured pH of solution” value [1, 4] was 11.5.

Compound `CN1CCCN(C(=O)C(c2ccccc2)C2CCCC2)CC1` (stereo not drawn) [Compound 3f] has an IC50 (human M3 receptor; [3]) of 0.409 µM.

For `O=C(C(c1ccccc1)C1CCCC1)N1CCN(CCC2CCCCC2)CC1` (stereo not drawn) [Compound 9a], the IC50 (human M3 receptor; [3]) was 6 µM.

With `O=C(N1CCN(CCc2ccccc2)CC1)C(O)(c1ccccc1)C1CCCC1` (stereo not drawn) [Compound 7f] the IC50 (human M3 receptor) was 4.7 µM.

With `CCCCCCN1CCN(C(=O)C(c2ccccc2)C2CCCC2)CC1` (stereo not drawn) [Compound 3d] the IC50 (human M3 receptor; [3]) was 7.9 µM.

Compound `CC(Cc1ccc2c(c1)OCO2)CN1CCN(C(=O)C(O)(c2ccccc2)C2CCCC2)CC1` (stereo not drawn) [Compound 7i] has an IC50 (human M3 receptor) of 4.6 µM.

In the case of `COc1ccc(CCN2CCN(C(=O)C(O)(c3ccccc3)C3CCCC3)CC2)cc1` (stereo not drawn) [Compound 9d], the IC50 (human M3 receptor) is reported as 0.357 µM.

Work on `O=C(C(c1ccccc1)C1CCCC1)N1CCN(C/C=C/c2ccccc2)CC1` (stereo not drawn) [Compound 7c] yielded an IC50 (human M3 receptor; [3]) of 0.599 µM.

In the case of `O=C(N1CCN(CCOc2ccccc2)CC1)C(O)(c1ccccc1)C1CCCC1` (stereo not drawn) [Compound 9c], the IC50 (human M3 receptor) is reported as 1.2 µM.

`CN1CCN(C(=O)C(c2ccccc2)C2CCCCC2)CC1` (stereo not drawn) [Compound 3a] gave an IC50 (human M3 receptor; [3]) of 5.3 µM.

In the case of `CN1CCNCC1` [Compound 14], the “Measured pH of solution” value [1, 4] is reported as 11.0.

For `O=C(N1CCN(CC(O)c2ccccc2)CC1)C(O)(c1ccccc1)C1CCCC1` (stereo not drawn) [Compound 11], the IC50 (human M3 receptor) was 4.3 µM.

For `O=C(CN1CCN(C(=O)C(O)(c2ccccc2)C2CCCC2)CC1)c1ccccc1` (stereo not drawn) [Compound 9h], the IC50 (human M3 receptor) was 2.7 µM.

For `O=C(N1CCN(CCCc2ccccc2)CC1)C(O)(c1ccccc1)C1CCCC1` (stereo not drawn) [Compound 7d], the “% Increase in Ki-67 stained positive cells over vehicle” value [2] was 127% and the IC50 (human M3 receptor) was 0.063 µM.

With `O=C(N1CCNCC1)C(O)(c1ccccc1)C1CCCC1` (stereo not drawn) [Compound 6b] the “Measured pH of solution” value [1] was 10.0.
